Measurements from patent publication US4451485A, “Treatment of cardio-vascular diseases with 3-(2,2,2-trimethylhydrazinium) propionate dihydrate” (Institu Organicheskogo Sinteza Akademii Nauk Latviiskoi SSR, priority 1981, dated 1984).

Key:
[1] = Strophanthin arrhythmia in guinea pigs (450 μg/kg); assay type: in vivo; conditions: for ED50: Cavia porcellus, read-out: ED50, Strophanthin arrhythmia in guinea pigs
Experimental: As the third model of arrhythmia, there was used strophanthin arrhythmia in guinea pigs. […] Against the background of arrhythmia the test preparations were administered intravenously.

[2] = Coronary circulation and hemodynamics in narcotized cats; assay type: in vivo
Experimental: In acute experiments on narcotized cats with a mass of from 2.9 to 4.1 kg under artificial respiration, arterial pressure was recorded in the common carotide artery, central venous pressure in the right auricle, volume rate of blood flow in the ascending aortic arch and volume rate of the coronary blood flow. At the same time, there was recorded the content of oxyhemoglobin in venous coronary blood.

[3] = in the organism; cited from earlier work
[4] = Threshold of electric fibrillation of auricles and ventricles in cats; assay type: in vivo; conditions: for ED50: Felis catus, read-out: ED50, electric irritation of cat's heart; for Effect on fibrillation threshold relative to the composition of the invention: novocainamide 40-55 mg/kg, quinidine and lidocain lower doses
Experimental: Furthermore, the preparation according to the present invention was tested for specific antiarrhythmic and antianginal effects. […] The effect of the novel pharmaceutical composition according to the present invention was studied on cats weighing 2.9-3.6 kg. The preparation was used as a 10% aqueous solution containing 3-(2,2,2-trimethylhydrazinium)propionate for the determination of the threshold value of electric fibrillation of auricles and ventricles. Under artificial respiration after opening of the thorax and pericardium, needle-like electrodes were applied to the right auricula and apex of the left ventricle. The irritation was effected by square pulses of 1 m.s., 15 st/s.
(§1) For the comparison of preparations, as the criterion of the range of therapeutic effect, there was used the ratio of the half-lethal dose to the half-effective dose (LD50 /ED50) which was referred to as the antiarrhythmic index. […] The comparative study of the antiarrhythmic activity of pharmaceutical preparations using an acotine model of arrhythmia was effected in experiments on white rats weighing 190-240 g. The test preparations were administered intraperitoneally 10-40 minutes before administration of aconitine.

[5] = Variation of arrhythmogenic and lethal doses of CaCl2 in mice; assay type: in vivo, white mice; conditions: for Effect on arrhythmogenic and lethal doses of calcium chloride: single intraperitoneal administration
Experimental: Thus, the effect of the preparation according to the present invention has been studied relative to the variation of arrhythmogenic and lethal doses of calcium chloride. An experiment was carried out on white mice of both sexes weighing 19-28 g which were narcotized by urethane and an ECG was remetered in transthoracic lead. A 2% solution of calcium chloride was administered to the test animals into the tail vein at a constant rate (0.1 ml for 15 seconds). The average dose of calcium chloride causing the appearance of arrhythmia and heart arrest was determined. In the test groups, the studied compounds were administered 45, 60, 120, 180 and 240 minutes before the beginning of administration of calcium chloride (Table 1).
Variation of arrthythmogenic and lethal doses of CaCl2
with time after administration of the studied
pharmaceutical compositions in experiments on mice.

[6] = Aconitine model of arrhythmia in white rats; assay type: in vivo; conditions: for ED50: Rattus norvegicus, ip, read-out: ED50, aconitine arrhythmia in rats; for Antiarrhythmic index LD50/ED50, aconitine arrhythmia in rats: rat, in vivo
Experimental: as §1

[7] = in vivo; parameters: species or system white mice; conditions: mouse, in vivo; for LD50: white mice, intravenous (Table 2)
[8] = 10 mg/kg intraperitoneal, 60 minutes
[9] = 10 mg/kg intraperitoneal, 120 minutes
[10] = 30 mg/kg intraperitoneal, 60 minutes
[11] = 30 mg/kg intraperitoneal, 120 minutes
[12] = 3 mg/kg intraperitoneal, 45 minutes
[13] = 3 mg/kg intraperitoneal, 60 minutes
[14] = 3 mg/kg intraperitoneal, 120 minutes
[15] = 10 mg/kg intraperitoneal, 180 minutes

CCN(CC)CC(=O)Nc1c(C)cccc1C [Lidocain]
ED50 ([1]; iv): 3.8 ± 0.5 mg/kg | Duration for which Strophanthin-induced arrhythmia is cut short / ECG improved ([1]; intravenous): 0.5 to 3 min | Number of animals (experiments) with effect on arrhythmia ([1]; intravenous): 4 out of 7

CCOC(=O)COc1ccc2c(C)c(CCN(CC)CC)c(=O)oc2c1 [Carbocromene, reference compound]
Increase duration ([2]; 0.5 mg/kg): 35 min | Volume rate, percent of increase ([2]; 0.5 mg/kg): 30% | Change of heart output ([2]; 2 mg/kg): +5 - 15% | Increase duration ([2]; 2 mg/kg): 50 min | Volume rate, percent of increase ([2]; 2 mg/kg): 45% | Change of arterial pressure ([2]; 5 mg/kg): 0 - +7% | Change of central venous pressure ([2]; 5 mg/kg): 5 - 10% | Change of heart output ([2]; 5 mg/kg): +5 - 15% | Increase duration ([2]; 5 mg/kg): 70 min | Volume rate, percent of increase ([2]; 5 mg/kg): 55% | Saturation of the venous blood of coronary sinus with oxygen ([2]; in vivo): lastingly increase saturation of the venous blood of coronary sinus with oxygen

C[N+](C)(C)CCCC(=O)[O-] [γ-butyrobetain]
Metabolism into carnitine [3]: rapidly metabolized

CCN(CC)CCNC(=O)c1ccc(N)cc1 [Novocainamide]
ED50 ([4]; iv): 46 ± 6.3 mg/kg | Antiarrhythmic index LD50/ED50, electric irritation of cat's heart ([4]; intravenous): 2 | Antiarrhythmic index LD50/ED50, electric irritation of cat's heart ([4]; intravenous, listed as novocainamide): 2.3 | Effect on fibrillation threshold relative to the composition of the invention [4]: the same effect | Arrhythmogenic dose of CaCl2 [5, 8]: 114.16 mg/kg | Lethal dose of CaCl2 [5, 8]: 120.8 mg/kg | Arrhythmogenic dose of CaCl2 [5, 9]: 86.85 mg/kg | Lethal dose of CaCl2 [5, 9]: 104.5 mg/kg | Arrhythmogenic dose of CaCl2 [5, 10]: 125.16 mg/kg | Lethal dose of CaCl2 [5, 10]: 143 mg/kg | Arrhythmogenic dose of CaCl2 [5, 11]: 93.16 mg/kg | Lethal dose of CaCl2 [5, 11]: 114.9 mg/kg | Effect on arrhythmogenic and lethal doses of calcium chloride [5]: more pronounced increase of the arrhythmogenic dose of calcium chloride | ED50 [6]: 45 ± 5 mg/kg | Antiarrhythmic index LD50/ED50, aconitine arrhythmia in rats [6]: 2.5 | LD50 [7]: 112 mg/kg | ED50 ([1]; intravenous): 55 ± 7.3 mg/kg | Duration for which Strophanthin-induced arrhythmia is cut short / ECG improved ([1]; intravenous): 5 to 20 min

C=C[C@H]1C[N@@]2CC[C@H]1C[C@@H]2[C@@H](O)c1ccnc2ccc(OC)cc12 [Quinidine]
ED50 ([4]; intravenous): 2.6 ± 0.5 mg/kg | Antiarrhythmic index LD50/ED50, electric irritation of cat's heart ([4]; intravenous): 26 | Effect on fibrillation threshold relative to the composition of the invention [4]: exerting their effect at lower doses | Arrhythmogenic dose of CaCl2 [5, 12]: 128.9 mg/kg | Lethal dose of CaCl2 [5, 12]: 147.7 mg/kg | Arrhythmogenic dose of CaCl2 [5, 13]: 104.5 mg/kg | Lethal dose of CaCl2 [5, 13]: 117.8 mg/kg | Arrhythmogenic dose of CaCl2 [5, 14]: 87.47 mg/kg | Lethal dose of CaCl2 [5, 14]: 103.65 mg/kg | Arrhythmogenic dose of CaCl2 ([5]; 10 mg/kg intraperitoneal, 45 minutes before CaCl2, control 85): 120.84 mg/kg | Lethal dose of CaCl2 ([5]; 10 mg/kg intraperitoneal, 45 minutes before CaCl2, control 100.9): 138.54 mg/kg | Arrhythmogenic dose of CaCl2 [5, 8]: 119.48 mg/kg | Lethal dose of CaCl2 [5, 8]: 126.2 mg/kg | Arrhythmogenic dose of CaCl2 [5, 9]: 94.5 mg/kg | Lethal dose of CaCl2 [5, 9]: 117.6 mg/kg | Arrhythmogenic dose of CaCl2 [5, 15]: 88.7 mg/kg | Lethal dose of CaCl2 [5, 15]: 115.8 mg/kg | Effect on arrhythmogenic and lethal doses of calcium chloride [5]: more pronounced increase of the arrhythmogenic dose of calcium chloride | ED50 [6]: 4.3 ± 0.6 mg/kg | Antiarrhythmic index LD50/ED50, aconitine arrhythmia in rats [6]: 16 | Toxicity relative to the composition of the invention [7]: substantially higher toxicity | LD50 [7]: 68 mg/kg | ED50 ([1]; intravenous): 2.3 ± 0.4 mg/kg | Antiarrhythmic index LD50/ED50, Strophanthin arrhythmia in guinea pigs ([1]; guinea pig, in vivo): 30 | Duration for which Strophanthin-induced arrhythmia is cut short / ECG improved ([1]; intravenous): 0.5 to 3 min | Number of animals (experiments) with effect on arrhythmia ([1]; intravenous): 4 out of 8
